Results reported in ChEMBL document CHEMBL6182851, “Discovery of dual CDK4/6 and BRD4 inhibitor as apoptosis and autophagy inducers against NSCLC in vitro and in vivo” (Eur J Med Chem, 2025).

Assays:
Test in all cases: cells
A549 = settings: Homo sapiens, A549, 48 h
Description: Antitumor activity against human A549 cells assessed as inhibition of cell viability incubated for 48 hrs by MTT assay

NCI-H1299 = settings: Homo sapiens, NCI-H1299, 48 h
Description: Antitumor activity against human NCI-H1299 cells assessed as inhibition of cell viability incubated for 48 hrs by MTT assay

NCI-H460 = settings: Homo sapiens, NCI-H460, 48 h
Description: Antitumor activity against human NCI-H460 cells assessed as inhibition of cell viability incubated for 48 hrs by MTT assay

IC50 (A549) [µM]	IC50 (NCI-H1299) [µM]	IC50 (NCI-H460) [µM]	Structure (SMILES)
33.4	> 40	> 40	Cc1ccc2nc(-c3ccc(OCC(=O)N4CCN(c5ccc(Nc6ncc7cc(C(=O)N(C)C)n(C8CCCC8)c7n6)nc5)CC4)cc3)[nH]c(=O)c2c1
> 40	> 40	32.1	Cc1ccc2c(=O)[nH]c(-c3ccc(OCC(=O)N4CCN(c5ccc(Nc6ncc7cc(C(=O)N(C)C)n(C8CCCC8)c7n6)nc5)CC4)cc3)nc2c1
3.25	9.5	22.1	CN(C)C(=O)c1cc2cnc(Nc3ccc(N4CCN(C(=O)COc5ccc(-c6nc7ccc(F)cc7c(=O)[nH]6)cc5)CC4)cn3)nc2n1C1CCCC1
22.1	11.9	36.8	COc1ccc2nc(-c3ccc(OCC(=O)N4CCN(c5ccc(Nc6ncc7cc(C(=O)N(C)C)n(C8CCCC8)c7n6)nc5)CC4)cc3)[nH]c(=O)c2c1
21.4	8.67	26.6	COc1cc(OC)c2c(=O)[nH]c(-c3cc(C)c(OCC(=O)NNc4ncc5cc(C(=O)N(C)C)n(C6CCCC6)c5n4)c(C)c3)nc2c1
24.7	16.4	> 40	CN(C)C(=O)c1cc2cnc(Nc3ccc(N4CCN(C(=O)COc5c(Br)cc(-c6nc7ccc(F)cc7c(=O)[nH]6)cc5Br)CC4)cn3)nc2n1C1CCCC1
18.8	> 40	> 40	COc1cccc2nc(-c3ccc(OCC(=O)N4CCN(c5ccc(Nc6ncc7cc(C(=O)N(C)C)n(C8CCCC8)c7n6)nc5)CC4)cc3)[nH]c(=O)c12
21.1	14.6	36.1	COc1cc(OC)c2c(=O)[nH]c(-c3ccc(OCC(=O)N4CCN(c5ccc(Nc6ncc7cc(C(=O)N(C)C)n(C8CCCC8)c7n6)nc5)CC4)c(Br)c3)nc2c1
> 40	> 40	> 40	CN(C)C(=O)c1cc2cnc(Nc3ccc(N4CCN(C(=O)COc5ccc(-c6nc7ccc(F)cc7c(=O)[nH]6)cc5F)CC4)cn3)nc2n1C1CCCC1
> 40	> 40	16.4	COc1cc(-c2nc3ccc(F)cc3c(=O)[nH]2)ccc1OCC(=O)N1CCN(c2ccc(Nc3ncc4cc(C(=O)N(C)C)n(C5CCCC5)c4n3)nc2)CC1
> 40	> 40	34.3	Cc1cc(-c2nc3ccc(F)cc3c(=O)[nH]2)ccc1OCC(=O)N1CCN(c2ccc(Nc3ncc4cc(C(=O)N(C)C)n(C5CCCC5)c4n3)nc2)CC1
> 40	21.1	34.4	CN(C)C(=O)c1cc2cnc(Nc3ccc(N4CCN(C(=O)COc5ccc(-c6nc7cc(C(F)(F)F)ccc7c(=O)[nH]6)cc5)CC4)cn3)nc2n1C1CCCC1
